Assays:
physchem = assay type: physicochemical; details: pH 7.4
Protocol: The logD (pH 7.4) value was determined according to a literature procedure ([32]). Briefly, a 10-μl solution of [^68Ga]AJ647 (around 10 μCi) was added to a solution of 1-octanol (200 μl) mixed with phosphate-buffered saline (PBS) (190 μl) in a 1.5-ml centrifuge tube. After the mixture was vigorously shaken and vortexed, it was centrifuged at 3000 rpm for 5 min. Aliquots (10 μl) were removed from both phases, and the radioactivity was measured on an automated gamma counter (1282 Compugamma CS, Pharmacia/LKB Nuclear Inc., Gaithersburg, MD). The logD was calculated as the average log ratio value of the radioactivity in the 1-octanol fraction and the PBS fraction from the three samples.

HT1376 tumors = test: EV effect on Nectin-4 temporal PD, [^68Ga]AJ647 PET; assay type: in vivo, NSG mice
Protocol: Mice with tumor volumes of ~100 to 150 mm^3 were injected with ~200 μCi [7.4 megabecquerels (MBq)] of [^68Ga]AJ647 in […] of 5% ethanol in saline intravenously and anesthetized under 2.5% isoflurane. PET-computed tomography (CT) images were acquired at 60 min after radiotracer injection at 5 min per bed in an ARGUS small-animal PET/CT scanner (Sedecal, Madrid, Spain) as described previously (n = 3, unless otherwise noted). PET-MR images were acquired on a simultaneous 7T Bruker PET-MR scanner. Dynamic imaging was conducted to evaluate the PK of [^68Ga]AJ647. [^68Ga]AJ647 was injected (with the help of a catheter) after mice were anesthetized under 2.5% isoflurane on the equipment bed. All PET data were reconstructed using the two-dimensional (2D) ordered subset expectation maximization algorithm and corrected for radioactive decay and dead times. The SUV values were calculated by finding %IA on the basis of a calibration factor obtained from a known radioactive quantity and then normalizing by mice weight. Amide software was used to derive SUV values by drawing the region of interest to closely fit tumors. In particular, MR images were used to identify tumor boundaries manually; these boundaries were transferred to co-registered PET images to derive SUVs. This process was repeated for each mouse individually in a blinded fashion. For the change in accessible Nectin-4 following EV treatment, ΔSUV was calculated by subtracting baseline (pre-treatment) uptake from posttherapy uptake of [^68Ga]AJ647. TE was quantified by normalizing this change by initial SUV in the same subject controls. Image fusion, visualization, and 3D rendering were accomplished using Amira 2020.3.1 (FEI, Hillsboro, OR). The dose-time PD of Nectin-4 following EV treatment was studied at doses of 6, 9, and 15 mg/kg. Experiments involving PET imaging were performed first. Male NSG mice were inoculated with 4 million HT1376 cells at day 0. On day 23 (average tumor volume, 150 ± 30 mm^3), mice were randomized to receive either saline or a single dose of EV (6, 9, or 15 mg/kg) intravenously (n = 3 for each dose and n = 2 for saline). Mice (n = 2) from each dose group and saline group were imaged on days 1, 3, and 6 following EV treatment. Once PET imaging results were analyzed, ex vivo distribution experiment was performed with n = 16 to 18 for each dose and n = 10 for saline. Treated mice (n = 8 or 9 per dose per time point) along with saline controls (n = 5 per time point) were euthanized on days 1 and 6. Biodistribution studies were performed at 60 min after [^68Ga]AJ647 injection, as described above. PD metrics were defined as follows Accessible Nectin−4=SUVpost/SUVpre∗100 Nectin−4 TE=(SUVpre−SUVpost)/SUVpre∗100

SCaBER tumors = test: Pilot in vivo EV effect on tumor uptake of [^68Ga]AJ647, SCaBER tumors; design: species or system NSG mice; details: EV 20 mg/kg i.v. single dose, 24 hours before tracer, ex vivo 60 min, n = 5
Protocol: Male NSG mice were implanted subcutaneously with HT1376 and SCaBER cells (4 million each) on the right and left rostral ends, respectively. On day 25 after cell inoculation (average tumor volume, 200 ± 35 mm^3), mice were randomized and treated with a single dose of either saline or EV ADC (20 mg/kg) injected intravenously (volume not exceeding 300 μl) or with 200 μl of saline (n = 7 per group). Twenty-four hours following the EV dose, [^68Ga]AJ647 PET scans (n = 2 per group) were acquired, and ex vivo biodistribution (n = 5 per group) was performed using the protocols mentioned above.

Compound	logD (physchem)	Nectin-4 engagement by PET (HT1376 tumors; day 1, EV 6, 9 or 15 mg/kg single dose)	Nectin-4 engagement by PET (HT1376 tumors; day 3, EV 6 mg/kg)	Nectin-4 engagement by PET (HT1376 tumors; day 3, EV 9 and 15 mg/kg)	Nectin-4 engagement by PET (HT1376 tumors; day 6, EV 6 mg/kg)	Nectin-4 engagement by PET (HT1376 tumors; day 6, EV 9 mg/kg)	Nectin-4 engagement by PET (HT1376 tumors; day 6, EV 15 mg/kg)	reduction in [^68Ga]AJ647 tumor uptake vs saline controls (SCaBER tumors)
CSCC[C@@H]1NC(=O)[C@@H]2CSCCC(=O)N3CN(CN(C3)C(=O)CCSC[C@H](NC(=O)CCOCCOCCOCCOCCOCCOCCOCCOCCOCCOCCOCCOCCNC(=O)CN3CCN(CC(=O)O)CCN(CC(=O)O)CC3)C(=O)N3CCC[C@H]3C(=O)N[C@@H](Cc3cccc4ccccc34)C(=O)N[C@@H](CC(=O)O)C(=O)N2)C(=O)CCSC[C@@H](C(N)=O)NC(=O)[C@H](Cc2c[nH]c3ccccc23)NC(=O)[C@@H]2C[C@@H](O)CN2C(=O)[C@@H]2CCCN2C(=O)[C@H]([C@@H](C)O)NC(=O)[C@H](CO)NC(=O)[C@H](Cc2c[nH]c3ccccc23)NC(=O)[C@@H](CC(=O)O)NC(=O)[C@H](CCCCNC(=N)N)NC1=O [[^68Ga]AJ647, metal not drawn]	-2.06 ± 0.17							
enfortumab vedotin [EV]		full occupancy of Nectin-4	increase in [^68Ga]AJ647 uptake	low tracer uptake	significant increase in [^68Ga]AJ647 uptake	moderate increase in uptake	minimal tracer uptake	72%
